Here are results for six molecules from patent publication US20220042033A1, “COMPOSITION AND METHOD FOR CONFERRING AND/OR ENHANCING TOLERANCE AGAINST HERBICIDES BY USING VARIANTS OF PPO” (FarmHannong Co., Ltd., priority 2017, published 2022).

What all share (assay type): cell-based
Assay [1] has as its system E. coli BT3(ΔPPO) transformed with Auxenochlorella protothecoides ApPPO1 (SEQ ID NO: 1) variant Y422T (YT). In words: Herbicide tolerance test in PPO-deficient E. coli BT3(ΔPPO), growth on plates. The settings on record: Table 7, light, 37° C., 16 to 20 hours, vs wild type at highest herbicide concentration.
Description: (§2) The mutated CyPPO gene obtained from the Example 2 was transformed to BT3 (ΔPPO) strain which is deficient of PPO activity and cultured in LB media with PPO-inhibiting herbicide, thereby examining whether growth of transformed BT3 was not inhibited.
(§3) BT3 competent cells were transformed with the pET303-ApPPO1 and pET303-MxPPO plasmids and those with a mutation(s) constructed in Example 2 respectively, and were cultured in LB agar media containing carbenicillin (Gold Biotechnology, Co., Ltd.).
(§4) Single colony of E. coli transformed with each CyPPO gene was cultured in 3 ml of LB broth containing carbenicillin overnight, and then was subcultured until absorbance (OD600) reached 0.5 to 1. Then, it was diluted with LB broth to OD600=0.5. Again, the diluted solution was serially diluted 4 times by a factor of one tenth.
(§5) The LB agar media (LB 25 g/l, Bacto agar 15 g/l) containing carbenicillin (100 μg/ml) and 0 to 4,000 μM of various herbicides dissolved in DMSO was prepared. Next, 10 μl of each diluted solution was dropped on the plate and cultured at 37° C. under light (Tables 7, 9 and 10, FIGS. 2 to 6, 13 to 20) or dark (Tables 8 and 11, FIGS. 7 to 12, 21 to 24) for 16 to 20 hours. Then, the extent of tolerance was evaluated.
(§6) The extent of herbicide tolerance of the ApPPO1 or MxPPO mutated genes was evaluated by comparing that of mutated genes with that of ApPPO1 or MxPPO wild type. The relative tolerance was represented with “+” as a factor of 10 times.
(§7) In Tables 7 to 11, tolerance level was presented as ‘−’ of tolerance of wild type and of variants equivalent to that of wild type, and was done as ‘+’ per each 10 fold resistance until ‘+++++’ as maximal resistance. […] A dilution series (OD600=0.5, 0.05, 0.005, 0.0005, 0.00005) was made and spotted on LB agar plates supplemented with herbicides.
Assay [2] deals with E. coli BT3(ΔPPO) transformed with Auxenochlorella protothecoides ApPPO1 (SEQ ID NO: 1) variant Y422M (YM). Described as above. The settings on record: Table 7, light, 37° C., 16 to 20 hours, vs wild type at highest herbicide concentration.
Description: as §2, §3, §4, §5, §6, §7
Assay [3] relates to E. coli BT3(ΔPPO) transformed with Auxenochlorella protothecoides ApPPO1 (SEQ ID NO: 1) variant A215C (AC). The assay is described as above. The following applies: Table 7, light, 37° C., 16 to 20 hours, vs wild type at highest herbicide concentration.
Assay [4] concerns E. coli BT3(ΔPPO) transformed with Auxenochlorella protothecoides ApPPO1 wild type, SEQ ID NO: 1. The description is as above. The settings on record: ApPPO1 WT, Table 7; light, 37° C., 16 to 20 hours; vs wild type at highest herbicide concentration. Here is the method: (§1) Then, the extent of tolerance was evaluated.
Assay [5] relates to E. coli BT3(ΔPPO) transformed with Auxenochlorella protothecoides ApPPO1 (SEQ ID NO: 1) variant Y422L (YL). Described as above. The following applies: Table 7, light, 37° C., 16 to 20 hours, vs wild type at highest herbicide concentration.
Description: as §2, §3, §4, §5, §6, §7
Assay [6] deals with E. coli BT3(ΔPPO) transformed with Auxenochlorella protothecoides ApPPO1 (SEQ ID NO: 1) variant V360M (VM). The assay is described as above. The settings on record: Table 7, light, 37° C., 16 to 20 hours, vs wild type at highest herbicide concentration.
Description: as §2, §3, §4, §5, §6, §7
For assay [7], the system named is E. coli BT3(ΔPPO) transformed with Auxenochlorella protothecoides ApPPO1 (SEQ ID NO: 1) variant A215L (AL). Described as above. The settings on record: Table 7, light, 37° C., 16 to 20 hours, vs wild type at highest herbicide concentration.
Description: as §2, §3, §4, §5, §6, §7
In assay [8] the test system is E. coli BT3(ΔPPO) transformed with Auxenochlorella protothecoides ApPPO1 (SEQ ID NO: 1) variant Y422I (YI). The settings on record: Table 7, light, 37° C., 16 to 20 hours, vs wild type at highest herbicide concentration.
Description: as §2, §3, §4, §5, §6, §7
In assay [9] the test system is E. coli BT3(ΔPPO) transformed with Auxenochlorella protothecoides ApPPO1 (SEQ ID NO: 1) variant Y422C (YC). In words: Herbicide tolerance test in PPO-deficient E. coli BT3(ΔPPO), growth on plates. The following applies: Table 7, light, 37° C., 16 to 20 hours, vs wild type at highest herbicide concentration.
For assay [10], the system named is E. coli BT3(ΔPPO) transformed with Myxococcus xanthus MxPPO wild type, SEQ ID NO: 3. The assay is described as above. The following applies: MxPPO WT, Table 9; light; tiafenacil to 2000 μM, saflufenacil to 200 μM, flumioxazin to 100 μM. How it is done: as §1
Assay [11] deals with E. coli BT3(ΔPPO) transformed with Myxococcus xanthus MxPPO (SEQ ID NO: 3) variant A170C. The description is as above. The settings on record: Table 9, light, tiafenacil to 2000 μM, saflufenacil to 200 μM, flumioxazin to 100 μM.
Description: as §2, §3, §4, §5
(§8) The extent of herbicide tolerance of the ApPPO1 or MxPPO mutated genes was evaluated by comparing that of mutated genes with that of ApPPO1 or MxPPO wild type. […]
Assay [12] deals with E. coli BT3(ΔPPO) transformed with Myxococcus xanthus MxPPO (SEQ ID NO: 3) variant M365L. The description is as above. The settings on record: Table 9, light, tiafenacil to 2000 μM, saflufenacil to 200 μM, flumioxazin to 100 μM.
Description: as §2, §3, §4, §5, §8
For assay [13], the system named is E. coli BT3(ΔPPO) transformed with Myxococcus xanthus MxPPO (SEQ ID NO: 3) variant A170L. Described as above. The settings on record: Table 9, light, tiafenacil to 2000 μM, saflufenacil to 200 μM, flumioxazin to 100 μM.
Description: as §2, §3, §4, §5, §8
Assay [14] relates to E. coli BT3(ΔPPO) transformed with Myxococcus xanthus MxPPO (SEQ ID NO: 3) variant I311M. The description is as above. The settings on record: Table 9, light, tiafenacil to 2000 μM, saflufenacil to 200 μM, flumioxazin to 100 μM.
Description: as §2, §3, §4, §5, §8
For assay [15], the system named is E. coli BT3(ΔPPO) transformed with Myxococcus xanthus MxPPO (SEQ ID NO: 3) variant M365I. Described as above. The settings on record: Table 9, light, tiafenacil to 2000 μM, saflufenacil to 200 μM, flumioxazin to 100 μM.
Description: as §2, §3, §4, §5, §8
The test system of assay [16] is E. coli BT3(ΔPPO) transformed with Myxococcus xanthus MxPPO (SEQ ID NO: 3) variant M365V. Described as above. The settings on record: Table 9, light, tiafenacil to 2000 μM, saflufenacil to 200 μM, flumioxazin to 100 μM.
Description: as §2, §3, §4, §5, §8

As for `CS(=O)(=O)NC(=O)c1cc(Oc2ccc(C(F)(F)F)cc2Cl)ccc1[N+](=O)[O-]` [Fomesafen, fomesafen], the “relative herbicide tolerance level” value in assay [1] is on record as “+ (1-9 fold higher tolerance)”; in assay [2], “+ (1-9 fold higher tolerance)”; in assay [3], “+ (1-9 fold higher tolerance)”; in assay [4] it was “−”; in assay [5] it was “+ (1-9 fold higher tolerance)”; in [6], “+ (1-9 fold higher tolerance)”. The “relative herbicide tolerance level” value in assay [7] is recorded as “+++ (100-999 fold higher tolerance)”; in assay [8], “+ (1-9 fold higher tolerance)”; in [9] it was “++ (10-99 fold higher tolerance)”.
Take `O=C(O)c1cc(Oc2ccc(C(F)(F)F)cc2Cl)ccc1[N+](=O)[O-]` [acifluorfen]: the “relative herbicide tolerance level” value in assay [1] is on record as “+ (1-9 fold higher tolerance)”; in assay [2] it was “++ (10-99 fold higher tolerance)”; in assay [3], “++ (10-99 fold higher tolerance)”; in assay [4], “−”; in [5] it was “++ (10-99 fold higher tolerance)”; in assay [6], “++ (10-99 fold higher tolerance)”. Also, the “relative herbicide tolerance level” value was “+++ (100-999 fold higher tolerance)” in assay [7], “+ (1-9 fold higher tolerance)” in assay [8] and “++ (10-99 fold higher tolerance)” in assay [9].
Regarding `CC(C)=C1OC(=O)N(c2cc(OC3CCCC3)c(Cl)cc2F)C1=O` [pentoxazone], the “relative herbicide tolerance level” value in assay [3] is listed as “+ (1-9 fold higher tolerance)”; in [4], “−”; in assay [6] it was “+ (1-9 fold higher tolerance)”; in assay [8] it was “++ (10-99 fold higher tolerance)”; in [9] it was “+++ (100-999 fold higher tolerance)”.
As for `C#CCN(C)c1c(C#N)cnn1-c1nn2c(c1Cl)CCCC2` [pyraclonil], the “relative herbicide tolerance level” value in [1] was “+ (1-9 fold higher tolerance)”; in [2], “++ (10-99 fold higher tolerance)”; in assay [3] it was “+ (1-9 fold higher tolerance)”; in assay [4], “−”; in assay [5], “++ (10-99 fold higher tolerance)”; in assay [6], “+ (1-9 fold higher tolerance)”. The results for the “relative herbicide tolerance level” value in assay [7], in [8] and in assay [9] were “++ (10-99 fold higher tolerance)”, “+ (1-9 fold higher tolerance)” and “++ (10-99 fold higher tolerance)”, respectively.
Take `CCOC(=O)COc1cc(-c2nn(C)c(OC(F)F)c2Cl)c(F)cc1Cl` [pyraflufenethyl, pyraflufen-ethyl]: the “relative herbicide tolerance level” value in [4] is recorded as “−”; in assay [7], “+++ (100-999 fold higher tolerance)”; in assay [8], “++ (10-99 fold higher tolerance)”; in assay [9], “+++ (100-999 fold higher tolerance)”.
With `CC(C)N(C)S(=O)(=O)NC(=O)c1cc(-n2c(=O)cc(C(F)(F)F)n(C)c2=O)c(F)cc1Cl` [saflufenacil], the “relative herbicide tolerance level” value in assay [1] is recorded as “++++ (1,000-9,999 fold higher tolerance)”; in [2], “+++++ (more than 10,000 fold higher tolerance)”; in assay [3] it was “+ (1-9 fold higher tolerance)”; in assay [10], “−”; in assay [4], “−”; in [5], “++++ (1,000-9,999 fold higher tolerance)”. Besides, the “relative herbicide tolerance level” value in assay [11] was “+++ (100-999 fold higher tolerance)”; in assay [12], “++ (10-99 fold higher tolerance)”; in assay [6], “+++ (100-999 fold higher tolerance)”; in assay [7], “++++ (1,000-9,999 fold higher tolerance)”; in assay [13], “++ (10-99 fold higher tolerance)”; in assay [14] it was “++ (10-99 fold higher tolerance)”. Also, the “relative herbicide tolerance level” value in assay [8] was “+++++ (more than 10,000 fold higher tolerance)”; in assay [9], “+++ (100-999 fold higher tolerance)”; in assay [15] it was “++ (10-99 fold higher tolerance)”; in assay [16] it was “+++ (100-999 fold higher tolerance)”.
